The record followed here is US10081660B2, “Polynucleotide, polypeptide with immunosuppressive activity, expression cassette, expression vector, host cell, pharmaceutical composition, methods for producing a polypeptide with immunosuppressive activity and for preventing or treating conditions that require immunosuppression, and use of a …” (FUNDAÇÃO BUTANTAN, priority 2013, dated 2018).

Ends that are not written are not given here.

One series has as its system HIII mice. Put plainly: Immunosuppressive activity against soluble antigen (human gamma globulin, HGG), anti-HGG antibodies by ELISA. The class given is in vivo. The conditions noted are these: for suppression of anti-HGG antibody production: single 3 μg dose intraperitoneally, HGG on Al(OH)3 after 24 hours. Here is the method: The immunosuppressive activity can also be evaluated against a soluble antigen, such as human gamma globulin (HGG), adsorbed in aluminum hydroxide, and the antibodies titer determined by ELISA.
Titers were determined by ELISA and calculated considering the highest dilution of experimental sera whose O.D. (optical density) was five times higher than those obtained for normal serum at the same dilution.
The immunosuppressive activity of the synthetic polypeptide P2 (SEQ ID NO: 5) and P6 (SEQ ID NO: 9) was evaluated against HGG, taking into account immunosuppression time after preventive treatment and antigen inoculation. In all protocols, animals received a single dose of the tested polypeptides. In this experiment, the HIII mice (5 animals/group) were treated intraperitoneally with 3 μg of P6 or 3 μg of P2, and after 24 hours, were immunized intraperitoneally with HGG adsorbed on Al(OH)3 (10 μg/animal); The untreated group was used as a positive control receiving only HGG. […] The negative control was represented by a group called normal serum, i.e., serum from untreated and non-immunized animals. O.D. values obtained from the 1:500 dilution were presented herein as average+standard deviation and were statistically analyzed by Student t test. Values were considered significant when p<0.0001 (***); p<0.005 (**); p<0.05 (*) compared to the positive control, i.e., animals immunized only with HGG. Thus, the HIII mice groups received polypeptides SEQ ID NO: 22, P2 and P6.

Series [1] concerns Lineage HIII mice. Put plainly: Immunogenicity analysis: anti-polypeptide antibodies by ELISA after immunization. The class given is in vivo. The conditions noted are these: intraperitoneal, bleeding seven days after immunization. Here is the method:
The immunogenicity is the capacity of a substance to induce an immune response. To evaluate the immunogenic potential of this invention's polypeptides, the antibody production is determined by the dosage of antibodies titer by ELISA after administration of the present invention polypeptides in potent adjuvants.
Anti-recombinant polypeptide antibodies were measured by ELISA. […] The reactions were developed by the addition of anti-mice-IgG conjugated to peroxidase (1: 7,500), followed by addition of OPD (o-Phenylenediamine dihydrochloride) and H2O2. The reading of the reactions was performed at λ492 nm on a plate spectrophotometer. The titer was established as the highest dilution of experimental sera which optical densities were three times higher than those obtained for normal serum at the same dilution. The data correspond to values obtained from two independent experiments. The significance between different groups (6 animals/group) was p<0.01.
One group was used as a positive control, receiving human gamma globulin (HGG). Bleeding was performed seven days after immunization and antibody production was assessed by ELISA.

Series [2] deals with C3 component of human complement system (Homo sapiens, UniProt P01024). In words: Cleavage of C3 component (SDS-PAGE). Particulars: 9 μg human C3, 5 μg polypeptide, 37° C. for 5 hours. The class given is biochemical. The text has this:
(§1) Another possibility would be the verification of hydrolysis capacity in known substrates. The proteolytic enzymes of viperidae venoms have, for example, the capacity to hydrolyze the fibrinogen and the C3 component of the human complement system, and verifying this effect is a way of inquiring about the proteolytic activity.
According to the caption on FIG. 14: (A) Human C3; (B) Human C3+venom; (C) Human C3+polypeptide. The samples were subjected to SDS-PAGE (10%) analysis under reducing conditions and the gel was stained with Coomassie blue.

For the next series, the system named is BALB/c mice. In words: Hemorrhagic activity, method of Kondo et al., intradermal injection. The class given is in vivo. Particulars: 4 mg L. muta venom or 50 mg recombinant polypeptide, skin assessed after 2 hours. The protocol:
(1960, Jpn. J. Med. Sci. Biol. 13: 43-52).
After 2 hours, the animals were euthanized and the skin removed to assess the presence of hemorrhage.

Series [3] has as its system FRET substrate Abz-FRSSRQ EDDnp. In words: Proteolytic activity on extinguished fluorescence (FRET) substrate, spectrofluorometer. The class given is biochemical. The conditions noted are these: 10 μg of polypeptide, fluorescence monitored for 1 hour.
For series [4], the system named is Lineage HIII mice. Put plainly: Immunosuppressive activity against particulate antigen (sheep erythrocytes), hemagglutination. The class given is in vivo. The conditions noted are these: 50 μg intraperitoneally 72 hours before immunization with sheep erythrocytes, […] cells/animal. The protocol: For the invention's polypeptide immunosuppressive activity analysis, Lineage HIII mice constitutively known as good responder to of antibody production are inoculated, intraperitoneally, and immunized with structurally complex and highly immunogenic antigens, such as sheep erythrocytes, a particulate antigen. The animals' serum is then analyzed regarding its hemagglutination activity: the lower is the hemagglutinating effect; the higher is the immunosuppressive capacity of the evaluated compound. The immunosuppressive activity can also be evaluated against a soluble antigen, such as human gamma globulin (HGG), adsorbed in aluminum hydroxide, and the antibodies titer determined by ELISA.
An untreated group was used as positive control and received only E^S. Samples of 50 μL E^S (2% v/v) were incubated with 50 μL of the sera from immunized animals (serially diluted) in 96 U-bottom well plates for 8 hours at room temperature. As negative control, E^S were incubated with PBS only. Antibody titers were that ones whose higher serum dilutions promoted agglutination of erythrocytes. The data are representative of three independent experiments. The significance between different groups was p<0.01 (FIG. 16).

For another series, the target named is T1, human fibrinogen (Homo sapiens, UniProt P02671+P02675+P02679).
T1 sequence (P02671 20-629 limits assumed): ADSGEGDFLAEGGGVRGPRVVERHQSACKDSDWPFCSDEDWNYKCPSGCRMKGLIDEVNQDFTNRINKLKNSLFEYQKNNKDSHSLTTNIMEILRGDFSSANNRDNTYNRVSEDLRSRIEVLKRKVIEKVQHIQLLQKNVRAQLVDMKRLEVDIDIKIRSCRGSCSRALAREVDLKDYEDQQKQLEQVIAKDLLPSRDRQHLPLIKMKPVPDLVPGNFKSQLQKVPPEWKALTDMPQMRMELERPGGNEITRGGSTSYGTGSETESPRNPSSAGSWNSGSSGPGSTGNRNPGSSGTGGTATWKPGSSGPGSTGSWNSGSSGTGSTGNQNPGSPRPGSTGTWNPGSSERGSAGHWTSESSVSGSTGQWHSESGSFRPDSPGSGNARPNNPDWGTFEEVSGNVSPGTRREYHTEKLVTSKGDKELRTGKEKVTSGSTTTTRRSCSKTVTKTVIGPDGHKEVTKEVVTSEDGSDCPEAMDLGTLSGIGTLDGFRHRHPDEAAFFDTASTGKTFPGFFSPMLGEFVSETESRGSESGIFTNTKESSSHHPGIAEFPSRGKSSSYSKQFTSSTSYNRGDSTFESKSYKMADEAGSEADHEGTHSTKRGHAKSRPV
T1 sequence (P02675 31-491): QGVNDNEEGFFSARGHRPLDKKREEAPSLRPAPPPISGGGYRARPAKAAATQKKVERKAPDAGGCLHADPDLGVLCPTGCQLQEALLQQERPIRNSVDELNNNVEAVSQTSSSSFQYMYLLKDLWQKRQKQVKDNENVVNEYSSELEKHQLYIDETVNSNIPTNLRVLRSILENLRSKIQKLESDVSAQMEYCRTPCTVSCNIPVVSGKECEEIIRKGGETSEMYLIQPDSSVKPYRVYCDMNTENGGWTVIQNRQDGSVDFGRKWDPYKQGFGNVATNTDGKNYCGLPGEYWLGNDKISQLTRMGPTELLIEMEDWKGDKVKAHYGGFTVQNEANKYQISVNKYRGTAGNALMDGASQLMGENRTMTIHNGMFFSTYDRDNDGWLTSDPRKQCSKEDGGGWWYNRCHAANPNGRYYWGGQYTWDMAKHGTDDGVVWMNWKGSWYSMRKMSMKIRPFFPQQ
T1 sequence (P02679 27-433 limits assumed): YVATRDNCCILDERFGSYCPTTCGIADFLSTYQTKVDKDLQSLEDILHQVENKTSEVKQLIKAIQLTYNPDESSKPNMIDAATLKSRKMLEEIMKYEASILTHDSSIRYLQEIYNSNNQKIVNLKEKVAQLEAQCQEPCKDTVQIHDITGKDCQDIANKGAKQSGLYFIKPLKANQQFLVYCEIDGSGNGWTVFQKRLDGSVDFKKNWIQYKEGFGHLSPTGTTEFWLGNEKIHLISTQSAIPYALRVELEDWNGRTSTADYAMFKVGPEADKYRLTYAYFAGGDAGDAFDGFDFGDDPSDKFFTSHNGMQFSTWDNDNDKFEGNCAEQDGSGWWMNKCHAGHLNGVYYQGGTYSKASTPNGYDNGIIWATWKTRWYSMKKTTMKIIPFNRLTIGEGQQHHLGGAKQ
In words: Fibrinogenolytic assay (SDS-PAGE). The class given is biochemical. Particulars: 30 μg human fibrinogen, 5 μg polypeptide, 37° C. for 5 hours; whole L. muta venom as positive control. The protocol: as §1
To confirm the absence of enzymatic activity, one experiment was carried out a fibrinogenolytic assay. […] The samples were subjected to SDS-PAGE (10%) analysis under reducing conditions and the gel was stained with Coomassie blue.

Chain of C3 component of human complement system (P01024 23-1663): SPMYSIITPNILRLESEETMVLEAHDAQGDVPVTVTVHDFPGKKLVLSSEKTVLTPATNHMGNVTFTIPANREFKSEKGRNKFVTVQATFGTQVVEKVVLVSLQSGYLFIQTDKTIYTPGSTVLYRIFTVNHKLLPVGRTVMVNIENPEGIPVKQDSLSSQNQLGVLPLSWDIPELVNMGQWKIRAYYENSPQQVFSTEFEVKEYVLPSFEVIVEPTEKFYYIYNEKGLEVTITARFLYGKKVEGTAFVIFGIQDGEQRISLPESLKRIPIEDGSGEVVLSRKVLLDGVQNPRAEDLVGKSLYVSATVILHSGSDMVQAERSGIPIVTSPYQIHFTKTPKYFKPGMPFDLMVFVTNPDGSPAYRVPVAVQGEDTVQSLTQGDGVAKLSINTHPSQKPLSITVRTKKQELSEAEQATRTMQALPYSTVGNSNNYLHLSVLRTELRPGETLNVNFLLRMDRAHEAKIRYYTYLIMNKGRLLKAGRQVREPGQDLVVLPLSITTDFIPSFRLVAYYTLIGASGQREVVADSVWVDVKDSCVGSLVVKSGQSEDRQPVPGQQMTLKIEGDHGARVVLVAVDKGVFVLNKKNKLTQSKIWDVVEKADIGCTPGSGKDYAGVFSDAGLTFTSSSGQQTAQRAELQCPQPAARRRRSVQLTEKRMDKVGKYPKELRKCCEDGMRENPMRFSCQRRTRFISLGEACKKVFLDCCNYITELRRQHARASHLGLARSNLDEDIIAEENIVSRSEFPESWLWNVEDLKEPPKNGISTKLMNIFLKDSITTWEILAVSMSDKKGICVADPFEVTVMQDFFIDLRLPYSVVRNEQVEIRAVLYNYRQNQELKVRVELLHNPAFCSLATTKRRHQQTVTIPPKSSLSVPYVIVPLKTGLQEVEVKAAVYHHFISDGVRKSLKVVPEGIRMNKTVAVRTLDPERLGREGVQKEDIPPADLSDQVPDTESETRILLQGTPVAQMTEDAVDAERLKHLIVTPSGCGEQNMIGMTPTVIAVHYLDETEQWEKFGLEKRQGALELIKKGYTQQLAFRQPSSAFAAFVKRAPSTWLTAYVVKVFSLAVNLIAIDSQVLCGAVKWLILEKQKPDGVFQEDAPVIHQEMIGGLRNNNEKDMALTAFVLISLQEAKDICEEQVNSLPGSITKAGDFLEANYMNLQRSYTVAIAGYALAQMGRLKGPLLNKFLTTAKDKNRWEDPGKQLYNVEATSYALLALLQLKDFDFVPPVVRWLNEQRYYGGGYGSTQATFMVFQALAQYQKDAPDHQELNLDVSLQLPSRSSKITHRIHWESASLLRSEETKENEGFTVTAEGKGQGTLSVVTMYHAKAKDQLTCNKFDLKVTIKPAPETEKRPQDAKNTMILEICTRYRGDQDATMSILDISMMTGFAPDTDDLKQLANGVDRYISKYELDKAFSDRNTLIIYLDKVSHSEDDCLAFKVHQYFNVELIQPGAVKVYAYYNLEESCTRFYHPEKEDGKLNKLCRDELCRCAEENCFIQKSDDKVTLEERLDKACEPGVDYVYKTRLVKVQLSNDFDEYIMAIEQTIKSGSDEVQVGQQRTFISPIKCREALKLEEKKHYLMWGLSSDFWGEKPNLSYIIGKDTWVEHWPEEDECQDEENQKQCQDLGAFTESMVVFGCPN

Turning to AIDLADNTIGIAYTGG [P2], the “suppression of anti-HGG antibody production” value in the series on HIII mice (after 7 days), in the series on HIII mice (after 13 days) and in the series with HIII mice (after 36 days) was “suppression of anti-HGG antibody production was induced” in each case.

NAQLLTAID [P6]: the “immunogenicity (production of antibodies against P6)” value in the series with Lineage HIII mice [1] (P6 (3 mg)) is “did not show immunogenicity”. The “inhibition of anti-HGG antibody production” value in the series on HIII mice (P6 3 μg/animal or recombinant polypeptide 50 μg/animal, HGG in Al(OH)3 after 24 hours) was “inhibition of anti-HGG antibody production”. In addition, the “suppression of anti-HGG antibody production” value in the series on HIII mice (after 7 days), in the series with HIII mice (after 13 days) and in the series with HIII mice (after 36 days) was “suppression of anti-HGG antibody production was induced” each time.

B1: recombinant polypeptide: SEQ ID NO: 2 plus six histidine residues, T7 phage protein 10 portion and enterokinase site; approximately 30 kDa, expressed in E. coli (protein)
chain: MRGSHHHHHHGMASMTGGQQMGRDLYDDDDKDRWGSELFSQKYIELVVVADHGMFTKYNGNLNTIRTRVHEIVNTLNGFYRSLNIHISLTDLEIWSNQDLINVQSAAADTLKTFGEWRERVLLNRISHDNAQLLTAIDLADNTIGIAYTGGMCYPKNSVGIVQDHSPKTLLIAVTMAHELGHNLGMKHDENHCHCSASFCIMPPSLSEGPSYEFSDCSKDYYEMFLTKRKPQCILNKPWYHGIRSLIRLLTKPERKLSWLLPPLSNN
Take B1: the “cleavage of C3 component” value in series [2] is on record as “unable to cleave the C3 component”. Moreover, the hemorrhagic activity entry in the series with BALB/c mice is “no hemorrhagic activity”. In addition, in the series on Lineage HIII mice [1] (50 μg), the “immunogenic potential (production of specific anti-recombinant polypeptide antibodies)” value is recorded as “very low or no immunogenic potential”. In addition, in series [3], the “proteolytic activity on the FRET substrate” value is listed as “absence of recombinant polypeptide proteolytic activity”. In the series on Lineage HIII mice [4], the “hemagglutination by serum of treated animals (antibody response to sheep erythrocytes)” value is listed as “unable to promote hemagglutination”. Also, in the series with human fibrinogen, the hydrolysis of fibrinogen entry is “not able to hydrolyze fibrinogen”.
